Measurements taken from patent US20240114943A1, “TASTE-IMPROVING COMPOSITIONS AND USES THEREOF” (AMAI PROTEINS LTD., priority 2020, published 2024).

Assays:
[1] = Sensory expert panel time-intensity evaluation (sweetness intensity over time); assay type: in vivo, human
Description: The samples were evaluated by a panel of (˜15) prescreened, highly-sensitive, trained and calibrated expert tasters: The parameters quantified included Sweetness profile over time (Sweetness intensity with time after intake), Linger (Area under the sweetness intensity vs. time curve (AUC) from 60 to 150 or to 300 seconds), Linger time (Delta time from initial- to zero sweetness), Ratio of the Intensity at 60 seconds to the maximal intensity, Linger T50: Time to reach 50% of the maximal sweetness, Linger T10: Time to reach 10% of the maximal sweetness. The qualitative similarity of the taste to that of sugar was also evaluated, to describe attributes other than time-intensity profile.
Dilute citrate buffer was prepared in mineral water. […]
All micro-patched SP (MP-SP) were evaluated for sweetness intensity over time. The sensory panelists for the evaluation were screened for sensitivity for small differences in sweetness intensity and other basic tastes (saltiness, sourness, and bitterness), as well as sensory memory. These screening tests were performed according to ISO standards (IS 8586). The sensory expert panel was professionally trained and continuously assessed as to reproducibility and capability to differentiate between standard samples.
Sensory Method—Time Intensity (Measuring Sweetness Intensity Over Time): • 1. The products were tasted by an expert panel. • 2. Panelists were calibrated first with sugar solutions on a scale of 0-100 (magnitude estimation), while 0=not sweet at all. Calibration solutions used were 4% sucrose (defined as 50 sweetness) and 8% (defined as 100 sweetness grade). • 3. After calibration, the tasters preformed time-intensity evaluation for each sample according to the following stages: • a. After giving a signal, all tasters put the sample in their mouth, rolled it in their oral cavity for 2 seconds, and then swallowed. • b. After swallowing, the guide measured times, and at each time point, the taster was asked to grade the currently sensed sweetness intensity on the same scale (0-100) until the taste has disappeared. • c. The time periods examined were: 1, 2, 5, 7, 10, 15, 30, 45, 60, 90, 120, 150, 180, 210, 240, 270, and 300 seconds. • 4. Each panelist tasted a total of 6 products: SP standalone and four ratios of EGCG+SP tasted in varying orders. Sucrose solution (8Bx) was always tasted at the end. • 5. All the tested products were served using code numbers. • 6. Before and between samples, the tasters were requested to rinse their mouth with mineral water, eat an unsalted cracker and a cucumber, and drink water again. • 7. 11-15 tasters participated in these tests.

[2] = Meta-analysis of sensory panel meetings: four measures of lingering; assay type: in vivo, human; details: summary of Example 4
Description: The meta-analysis was based on 44 sensory panel meetings and 55 MP agents. Statistical analysis was conducted. Four measures of lingering were defined: • AUC—the area under the time-intensity curve from 60 seconds to 300 seconds. • I60/max—the ratio between the intensity recorded at 60 seconds and the maximum intensity recorded. • T50—the time in seconds at which intensity recorded was 50% of the maximal intensity recorded • T10—the time in seconds at which intensity recorded was 10% of the maximal intensity recorded
Each graph refers to a single parameter. The graphs show means and standard errors for the MP agents that show significant improvement compared to the control (DM09 alone). The standard errors are calculated according to all the data in the Meta analysis (including data that are not shown in the graph).
The mean for the protein without MP agents is colored black.

CC1(C)[C@@H](O[C@H]2O[C@H](C(=O)O)[C@@H](O)[C@H](O)[C@H]2O[C@@H]2O[C@H](C(=O)O)[C@@H](O)[C@H](O)[C@H]2O)CC[C@]2(C)[C@H]3C(=O)C=C4[C@@H]5C[C@@](C)(C(=O)O)CC[C@]5(C)CC[C@@]4(C)[C@]3(C)CC[C@@H]12.N [Mono Ammonium Glycyrrhizinate, monoammonium glycyrrhizinate, reference compound]
Sweetness profile over time (sweetness-intensity-vs.-time curve, lingering effect) ([1]; DM09 0.02 mg/ml, 8 Bx sugar equivalence level, vs DM09 alone): decreasing the lingering effect

OC[C@H]1O[C@@](CO)(O[C@H]2O[C@H](CO)[C@@H](O)[C@H](O)[C@H]2O)[C@@H](O)[C@@H]1O [sucrose, reference compound]
Typical linger of sugar ([1]; in vivo): ~60 s

epigallocatechin-3-gallate [EGCG, reference compound]
Sweetness profile over time (sweetness intensity) ([1]; EGCG with MNEI 0.08 mg/ml, 8 Bx, vs MNEI alone and sucrose, FIG. 1): significantly improved the sweetness profile of SP | Sweetness profile of DM09 (lingering effect) [2]: decreasing the lingering effect

B1: DM09: designer monellin, SEQ ID NO: 3; the sweet protein (SP) of Example 5 (protein)
chain: GNWEIIDIGPFTQNLGKFAVDEANKIGQYGRLTFNKVIRPCMKKTIYENEGFREIKGYEYQLYVRASDKLFRADISEDYKTRGRKLLRFNGPVPPP
Linger time (Delta time (in sec) from initial to 0 sweetness intensity) ([1]; DM09 0.02 mg/ml, 8 Bx sugar equivalence level, vs DM09 alone, P<0.05): significantly higher than the delta time of DM09:lactisole:tannic acid:ammonium Glycyrrhizinate | Linger time (Delta time (in sec) from initial to 0 sweetness intensity) ([1]; DM09 0.02 mg/ml, 8 Bx sugar equivalence level, vs DM09 alone, P<0.05, listed as DM09 only): significantly higher than the delta time of Quillija:DM09 (26:1) | Linger (sweetness-intensity-vs.-time curve) ([1]; sweet protein with gymnemic acids and/or maltodextrin, FIG. 15): longest linger time

B2: MNEI: single chain Monellin (MNEI) reference protein, SEQ ID NO: 28 (protein)
chain: GEWEIIDIGPFTQNLGKFAVDEENKIGQYGRLTFNKVIRPCMKKTIYENEGFREIKGYEYQLYVYASDKLFRADISEDYKTRGRKLLRFNGPVPPP
Linger (AUC of the sweetness-intensity vs. time, 60-150 seconds) ([1]; MNEI, 8 Bx, P<0.05, FIG. 2): significantly higher than the AUC of EGCG:MNEI (60:1)
